Data reported in patent publication US6372733B1, “Hexahydro-5-imino-1,4-1,4-thiazepine derivatives as inhibitors of nitric oxide synthases” (Merck & Co., Inc., priority 1995, dated 2002).
Counter-ions that a name gives are not always drawn. Like-named read-outs stand apart in the source and are kept apart here.

Experiments:
Assay type in all cases: biochemical
[1] = target: iNOS (Homo sapiens, UniProt P35228); assay: Assay Protocol for NOS Activity: formation of L-[3H]Citrulline from L-[3H]Arginine, iNOS
Description: (§1) NOS activity is measured as the formation of L-[2,3,4,5-^3H]Citrulline from L-[2,3,4,5-^3H]Arginine. The incubation buffer (100 uL) contained; 100 mM TES, pH 7.5, 5 μM FAD, 5 μM FMN, 10 μM BH4, 0.5 mM NADPH, 0.5 mM DTT, 0.5 mg/mL BSA, 2 mM CaC12, 10 ug/mL calmodulin (bovine), 1 μM L-Arg, 0.2 uCi L-[2,3,4,5-^3H]Arg, and the inhibitor in aqueous DMSO (max. 5%). The reaction is initiated by addition of enzyme. Incubations are performed at room temperature for 30 minutes and stopped by the addition of an equal volume of quenching buffer consisting of 200 mM sodium citrate, pH 2.2, 0.02% sodium azide. Reaction products are separated by passing through a cation exchange resin and quantitated as cpm by scintillation counting.

[2] = target: ecNOS (Homo sapiens, UniProt P29474); assay: Assay Protocol for NOS Activity: formation of L-[3H]Citrulline from L-[3H]Arginine, ecNOS
Description: as §1

[3] = target: ncNOS (Homo sapiens, UniProt P29475); assay: Assay Protocol for NOS Activity: formation of L-[3H]Citrulline from L-[3H]Arginine, ncNOS
Description: as §1

[4] = 1 μM L-Arg, room temperature, 30 minutes, read-out: iNOS (IC50)
[5] = 1 μM L-Arg, room temperature, 30 minutes, read-out: ecNOS (IC50)
[6] = 1 μM L-Arg, room temperature, 30 minutes, read-out: ncNOS (IC50)

| IC50 [1, 4] [µM] | IC50 [2, 5] [µM] | IC50 [3, 6] [µM] | IC50 [1] [µM] | IC50 [2] [µM] | IC50 [3] [µM] | SMILES |
| --- | --- | --- | --- | --- | --- | --- |
| > 50 | > 50 | > 50 |  |  |  | N=C1CCS[C@H]2CCCC[C@@H]2N1 (racemic) [Example 17, (±)-trans-Decahydro-4-imino-benzo[b]-1,4-thiazepine Acetic Acid Salt] |
| < 50 | < 50 | < 10 |  |  |  | NC1=NCCOCC1 [Example 3, Hexahydro-5-imino-1,4-oxazepine Hydrochloride.] |
|  |  |  | < 1 | < 50 | < 10 | CCCC1CSCCC(N)=N1 (stereo not drawn) [Example 4, Hexahydro-5-imino-3-propyl-1,4-thiazepine Hydrochloride] |
| > 50 | > 50 | > 50 |  |  |  | CCCC1CSCCNC1=N (stereo not drawn) [Example 5, Hexahydro-5-imino-6-propyl-1,4-thiazepine Hydrochloride] |
| < 10 | < 10 | < 1 |  |  |  | CC1CN=C(N)CCS1 (stereo not drawn) [Example 7, Hexahydro-5-imino-2-methyl-1,4-thiazepine Hydrochloride] |
| > 50 | > 50 | > 50 |  |  |  | CC(C)=CCC1CSCCNC1=N (stereo not drawn) [Example 8, Hexahydro-5-imino-6-(3-methyl-2-n-butenyl)-1,4-thiazepine Hydrochloride] |
| < 1 | > 50 | < 50 |  |  |  | CC(C)=CCC1CSCCC(=N)N1 (stereo not drawn) [Example 9, Hexahydro-5-imino-3-(3-methyl-2-n-butenyl)-1,4-thiazepine Hydrochloride] |
| < 50 | > 50 | > 50 |  |  |  | CC(C)CC1CSCCNC1=N (stereo not drawn) [Example 10, Hexahydro-5-imino-6-(2-methyl-propyl)-1,4-thiazepine Hydrochloride] |
| < 1 | > 50 | < 10 |  |  |  | CCCCC1CSCCC(N)=N1 (stereo not drawn) [Example 15, Hexahydro-5-imino-3-butyl-1,4-thiazepine. Hydrochloride] |
| < 1 | < 50 | < 10 |  |  |  | C=C(C)CC1CSCCC(=N)N1 (stereo not drawn) [Example 16, Hexahydro-5-imino-3-(2-methyl-3-propenyl)-1,4-thiazepine Hydrochloride.] |
|  |  |  | < 1 | < 10 | < 1 | CCC[C@H]1CSCCC(N)=N1 [Example 18, Hexahydro-5-imino-3(S)-propyl-1,4-thiazepine, Acetic Acid Salt] |
|  |  |  | < 10 | < 50 | < 10 | CCC[C@@H]1CSCCC(=N)N1 [Example 19, Hexahydro-5-imino-3(R)-propyl-1,4-thiazepine Acetic Acid Salt] |
| < 50 | > 50 | > 50 |  |  |  | CN1CCN=C(N)CC1 [Example 20, Hexahydro-5-imino-1-methyl-1H-1,4-diazepine Hydrochloride.] |

| SMILES | IC50 [1, 4] [µM] | IC50 [2, 5] [µM] | IC50 [3, 6] [µM] | IC50 [1] [µM] | IC50 [2] [µM] | IC50 [3] [µM] |
| --- | --- | --- | --- | --- | --- | --- |
| NC1=NCCNCC1 [Example 1, Hexahydro-5-imino-(1H-1,4-diazepine Dihydrochloride] | > 50 | > 50 | > 50 |  |  |  |
| NC1=NCCSCC1 [Example 2, Hexahydro-5-imino-1,4-thiazepine Hydrochloride] | < 10 | > 10 | < 10 |  |  |  |
| CC1CC(N)=NCCS1 (stereo not drawn) [Example 6, Hexahydro-5-imino-7-methyl-1,4-thiazepine Hydrochloride] | < 10 | < 10 | < 1 |  |  |  |
| CC(C)CC1CSCCC(N)=N1 (stereo not drawn) [Example 11, Hexahydro-5-imino-3-(2-methyl-propyl)-1,4-thiazepine Hydrochloride] | < 1 | > 50 | < 10 |  |  |  |
| CC1CSCCN=C1N (stereo not drawn) [Example 12, Hexahydro-5-imino-6-methyl-1,4-thiazepine Hydrochloride] | > 50 | < 50 | < 10 |  |  |  |
| CC1CSCCC(N)=N1 (stereo not drawn) [Example 13, Hexahydro-5-imino-3-methyl-1,4-thiazepine Hydrochloride] | < 1 | < 10 | < 10 |  |  |  |
| CCC1CSCCC(N)=N1 (stereo not drawn) [Example 14, Hexahydro-5-imino-3-ethyl-1,4-thiazepine Hydrochloride] | < 1 | < 50 | < 10 |  |  |  |
